This note sets out measurements from ChEMBL document CHEMBL1201862, “PubChem BioAssay data set” (2004).

Experiment [1] concerns the target T1, Bcl-2-related protein A1 (Mus musculus, UniProt Q07440).
T1 sequence (Q07440 whole entry): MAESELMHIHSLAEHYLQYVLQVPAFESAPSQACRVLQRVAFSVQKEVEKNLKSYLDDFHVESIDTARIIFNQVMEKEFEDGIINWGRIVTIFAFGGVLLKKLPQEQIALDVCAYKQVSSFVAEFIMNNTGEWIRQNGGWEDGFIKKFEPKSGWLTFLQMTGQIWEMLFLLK
The experiment in a line: displacement of Bid BH3 peptide from Bfl-1 – biochemical, fluorescence polarization, FITC-Bid, mouse, primary screen (AID 432).

The target of experiment [2] is Glyceraldehyde-3-phosphate dehydrogenase (Homo sapiens, UniProt P04406).
Glyceraldehyde-3-phosphate dehydrogenase, sequence (P04406 whole entry): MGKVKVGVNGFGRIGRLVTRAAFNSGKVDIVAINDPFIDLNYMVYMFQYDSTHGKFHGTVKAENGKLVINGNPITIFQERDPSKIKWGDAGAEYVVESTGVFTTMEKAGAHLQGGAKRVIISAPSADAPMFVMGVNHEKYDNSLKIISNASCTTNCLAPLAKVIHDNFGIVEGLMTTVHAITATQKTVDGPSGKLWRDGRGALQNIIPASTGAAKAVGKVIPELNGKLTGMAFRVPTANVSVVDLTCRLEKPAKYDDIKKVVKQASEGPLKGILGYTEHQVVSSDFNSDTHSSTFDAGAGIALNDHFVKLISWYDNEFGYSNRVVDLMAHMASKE
The target in experiment [3] is T2, Estrogen receptor (Homo sapiens, UniProt P03372).
T2 sequence (P03372 whole entry): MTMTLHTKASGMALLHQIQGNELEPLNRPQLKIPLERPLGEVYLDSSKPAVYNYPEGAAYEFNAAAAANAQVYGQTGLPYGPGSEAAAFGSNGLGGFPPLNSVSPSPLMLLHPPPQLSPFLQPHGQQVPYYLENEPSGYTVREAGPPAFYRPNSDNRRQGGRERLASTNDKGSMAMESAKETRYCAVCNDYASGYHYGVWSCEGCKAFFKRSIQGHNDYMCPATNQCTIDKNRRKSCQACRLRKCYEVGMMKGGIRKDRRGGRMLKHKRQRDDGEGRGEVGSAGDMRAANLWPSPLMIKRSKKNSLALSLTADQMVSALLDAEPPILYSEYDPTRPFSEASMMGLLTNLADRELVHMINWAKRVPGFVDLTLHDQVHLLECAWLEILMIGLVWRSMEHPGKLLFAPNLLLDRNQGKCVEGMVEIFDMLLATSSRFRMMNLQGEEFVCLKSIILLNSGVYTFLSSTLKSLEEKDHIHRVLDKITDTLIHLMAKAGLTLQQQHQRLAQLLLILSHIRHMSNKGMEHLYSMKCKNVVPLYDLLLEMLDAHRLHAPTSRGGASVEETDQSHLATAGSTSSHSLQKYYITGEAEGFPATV

The target in experiment [4] is T1, Bcl-2-related protein A1. In words: small-molecule antagonists of Bfl-1/BH3 interaction – biochemical, TR-FRET, mouse Bfl-1, confirmation (AID 621).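 Further: TR-FRET binding of GST-Bfl-1 to FITC-labelled Bid peptide via terbium antibody.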
In experiment [5] the target is T3, Estrogen receptor beta (Homo sapiens, UniProt Q92731).
T3 sequence (Q92731 whole entry): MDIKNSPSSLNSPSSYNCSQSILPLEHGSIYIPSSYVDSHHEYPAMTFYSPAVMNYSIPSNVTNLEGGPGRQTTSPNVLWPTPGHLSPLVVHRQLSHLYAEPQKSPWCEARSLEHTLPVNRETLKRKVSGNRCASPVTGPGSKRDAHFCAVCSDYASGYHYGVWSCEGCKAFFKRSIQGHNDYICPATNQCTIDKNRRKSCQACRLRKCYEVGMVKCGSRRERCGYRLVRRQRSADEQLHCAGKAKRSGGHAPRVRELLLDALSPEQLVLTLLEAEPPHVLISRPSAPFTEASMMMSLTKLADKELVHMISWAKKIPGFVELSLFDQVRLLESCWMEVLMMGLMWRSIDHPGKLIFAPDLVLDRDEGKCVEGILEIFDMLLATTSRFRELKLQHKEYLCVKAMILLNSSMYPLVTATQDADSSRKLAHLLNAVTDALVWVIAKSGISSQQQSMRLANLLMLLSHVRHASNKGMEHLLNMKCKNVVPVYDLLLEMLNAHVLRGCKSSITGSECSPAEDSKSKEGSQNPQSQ
Experiment [6] addresses T1, Bcl-2-related protein A1. The experiment in a line: Bfl-1 binding inhibitors, SAR follow-up, biochemical, fluorescence polarization (AID 1070).
For experiment [7], the target named is T3, Estrogen receptor beta. The experiment in a line: blockers of SRC-3 recruitment to ERβ – biochemical, ELISA, streptavidin-HRP readout, orthogonal assay, confirmation (AID 1060).
Experiment [8] relates to Vero. The experiment in a line: mammalian cell viability reduction – secondary assay, cytotoxicity control for West Nile virus antiviral project, dose response (AID 1650). It is filed as functional. Particulars: Chlorocebus sabaeus.
The target of experiment [9] is Heat shock protein HSP 90-alpha (Homo sapiens, UniProt P07900). The experiment in a line: Luminescence-based dose response biochemical high throughput screening assay for inhibitors of the Heat Shock Protein 90 (HSP90). [Related pubchem assays: 1831 (Summary AID.), 1846 (Confirmation screen.), 1789 (Primary screen.)].
Experiment [10] deals with HeLa. In words: Cytotoxicity counterscreen assay for transcriptional activators of heat shock protein 70 (Hsp70). [Related pubchem assays: 1203, 1252 ]. Particulars: Homo sapiens. It counts as functional.
Experiment [11] deals with Ubiquitin carboxyl-terminal hydrolase BAP1 (Homo sapiens, UniProt Q92560). The experiment in a line: inhibition of BAP1 ubiquitin hydrolase activity – biochemical, dose response (AID 714). It is filed as functional.
Ubiquitin carboxyl-terminal hydrolase BAP1, sequence (Q92560 whole entry): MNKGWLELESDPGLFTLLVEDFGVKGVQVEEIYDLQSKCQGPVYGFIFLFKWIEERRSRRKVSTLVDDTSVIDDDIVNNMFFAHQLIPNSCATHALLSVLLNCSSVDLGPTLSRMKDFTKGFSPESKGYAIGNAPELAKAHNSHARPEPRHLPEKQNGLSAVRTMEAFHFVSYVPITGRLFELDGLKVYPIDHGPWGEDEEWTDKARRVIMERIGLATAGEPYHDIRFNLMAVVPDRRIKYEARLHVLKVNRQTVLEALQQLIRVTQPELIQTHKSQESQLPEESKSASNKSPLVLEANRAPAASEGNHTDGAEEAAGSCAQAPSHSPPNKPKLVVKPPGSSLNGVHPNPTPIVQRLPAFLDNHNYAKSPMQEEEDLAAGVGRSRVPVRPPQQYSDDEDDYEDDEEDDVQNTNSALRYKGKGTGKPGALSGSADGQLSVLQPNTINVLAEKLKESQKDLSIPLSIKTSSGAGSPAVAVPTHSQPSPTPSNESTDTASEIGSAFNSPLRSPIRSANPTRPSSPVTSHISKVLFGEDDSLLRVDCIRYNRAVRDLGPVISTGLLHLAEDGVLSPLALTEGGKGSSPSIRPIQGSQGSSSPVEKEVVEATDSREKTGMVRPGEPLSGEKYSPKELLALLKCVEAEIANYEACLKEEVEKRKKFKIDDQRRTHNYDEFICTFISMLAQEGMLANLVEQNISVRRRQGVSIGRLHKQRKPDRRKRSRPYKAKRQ
Experiment [12] can be described thus: M. tuberculosis H37Rv growth inhibitors, H37Rv strain (AID 1626). It counts as functional.
The target of experiment [13] is T4, Mucolipin-3 (Homo sapiens, UniProt Q8TDD5).
T4 sequence (Q8TDD5 whole entry): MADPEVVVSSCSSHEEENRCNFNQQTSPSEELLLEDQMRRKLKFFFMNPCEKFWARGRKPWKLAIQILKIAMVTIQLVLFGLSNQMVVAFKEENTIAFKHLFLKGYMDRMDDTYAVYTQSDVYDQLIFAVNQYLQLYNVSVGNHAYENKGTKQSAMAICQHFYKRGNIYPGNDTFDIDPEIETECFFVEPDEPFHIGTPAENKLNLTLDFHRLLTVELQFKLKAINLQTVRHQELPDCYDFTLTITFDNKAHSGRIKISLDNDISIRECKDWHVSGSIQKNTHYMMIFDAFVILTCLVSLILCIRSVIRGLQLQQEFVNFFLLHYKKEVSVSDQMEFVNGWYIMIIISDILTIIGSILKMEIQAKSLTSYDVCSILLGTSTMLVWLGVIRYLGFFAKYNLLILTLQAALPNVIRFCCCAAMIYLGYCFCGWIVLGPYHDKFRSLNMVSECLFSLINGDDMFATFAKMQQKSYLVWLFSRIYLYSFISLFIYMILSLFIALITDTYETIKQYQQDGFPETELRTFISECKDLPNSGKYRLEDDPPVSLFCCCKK
In words: Dose response cell-based high-throughput screening assay for agonists of the transient receptor potential channel ML3 (TRPML3). [Related pubchem assays: 1526, 1424, 1448 ]. It counts as functional.

The target of experiment [14] is Ion channel NompC (Danio rerio, UniProt Q7T1G6). In words: Fluorescence counterscreen assay for TRPML3 agonists: dose response cell-based high-throughput screening assay to identify agonists of the transient receptor potential channel N1 (TRPN1). [Related pubchem assays: 1526, 1424, 1448 ]. It counts as functional.
Ion channel NompC, sequence (Q7T1G6 whole entry): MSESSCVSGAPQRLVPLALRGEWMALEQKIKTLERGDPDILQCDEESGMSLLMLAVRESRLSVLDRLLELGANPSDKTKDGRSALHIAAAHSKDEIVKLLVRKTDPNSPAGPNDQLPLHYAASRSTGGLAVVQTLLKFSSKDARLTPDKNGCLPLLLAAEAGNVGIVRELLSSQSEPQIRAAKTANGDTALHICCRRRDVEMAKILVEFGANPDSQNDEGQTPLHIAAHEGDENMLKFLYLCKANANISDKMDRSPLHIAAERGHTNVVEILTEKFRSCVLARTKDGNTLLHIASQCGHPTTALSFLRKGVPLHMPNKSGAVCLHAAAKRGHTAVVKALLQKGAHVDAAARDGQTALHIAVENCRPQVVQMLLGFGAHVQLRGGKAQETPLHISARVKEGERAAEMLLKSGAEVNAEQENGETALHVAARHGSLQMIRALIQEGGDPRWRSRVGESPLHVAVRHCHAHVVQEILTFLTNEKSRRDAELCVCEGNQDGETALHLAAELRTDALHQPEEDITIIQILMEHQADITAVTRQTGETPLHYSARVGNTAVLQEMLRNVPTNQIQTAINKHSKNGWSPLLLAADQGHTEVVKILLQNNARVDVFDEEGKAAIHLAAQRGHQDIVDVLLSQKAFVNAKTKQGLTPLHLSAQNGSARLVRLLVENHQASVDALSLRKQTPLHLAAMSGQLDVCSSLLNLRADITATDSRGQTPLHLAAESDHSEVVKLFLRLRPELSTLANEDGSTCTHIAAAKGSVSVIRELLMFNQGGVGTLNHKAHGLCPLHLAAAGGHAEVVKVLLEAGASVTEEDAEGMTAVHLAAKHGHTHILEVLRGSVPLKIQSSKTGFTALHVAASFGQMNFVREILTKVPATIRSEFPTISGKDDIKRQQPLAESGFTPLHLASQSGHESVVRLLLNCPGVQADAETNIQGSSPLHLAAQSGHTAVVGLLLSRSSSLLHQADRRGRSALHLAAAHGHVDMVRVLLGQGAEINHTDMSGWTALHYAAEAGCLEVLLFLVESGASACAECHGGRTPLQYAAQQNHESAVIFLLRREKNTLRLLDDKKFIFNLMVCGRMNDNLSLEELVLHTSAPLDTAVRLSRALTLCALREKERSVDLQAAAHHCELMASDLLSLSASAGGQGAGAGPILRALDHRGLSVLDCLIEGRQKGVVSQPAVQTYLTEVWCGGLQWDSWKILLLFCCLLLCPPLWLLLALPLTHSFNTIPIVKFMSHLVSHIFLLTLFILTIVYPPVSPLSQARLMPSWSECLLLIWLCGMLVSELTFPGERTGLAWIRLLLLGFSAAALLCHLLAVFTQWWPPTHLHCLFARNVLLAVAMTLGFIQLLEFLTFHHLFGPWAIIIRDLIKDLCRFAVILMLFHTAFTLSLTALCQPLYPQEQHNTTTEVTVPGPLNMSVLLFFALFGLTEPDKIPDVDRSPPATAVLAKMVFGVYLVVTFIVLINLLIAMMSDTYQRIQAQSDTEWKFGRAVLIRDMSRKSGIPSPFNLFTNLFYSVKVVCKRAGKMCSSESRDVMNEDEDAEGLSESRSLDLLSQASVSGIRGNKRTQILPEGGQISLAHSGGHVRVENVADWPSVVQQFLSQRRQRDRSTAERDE
Experiment [15] deals with Peroxisome proliferator-activated receptor gamma/Nuclear receptor coactivator 1 (Homo sapiens, UniProt P37231). In words: TR-FRET dose response biochemical High Throughput Screening assay for agonists of the steroid receptor coactivator 1 (SRC-1) recruitment by the peroxisome proliferator-activated receptor gamma (PPAR gamma): non-selective agonists. [Related pubchem assays (depositor defined):AID1300, AID1808, AID504735, AID631]. It counts as protein assay.

Experiment [16] has as its target Peroxisome proliferator-activated receptor gamma/Nuclear receptor coactivator 3 (Homo sapiens, UniProt P37231). The experiment in a line: TR-FRET dose response biochemical High Throughput Screening assay for agonists of the steroid receptor coactivator 3 (SRC-3) recruitment by the peroxisome proliferator-activated receptor gamma (PPAR gamma): non-selective agonists. [Related pubchem assays: 1301 (Confirmation screen.), 1048 (Primary screen.)]. It is filed as functional.

Experiment [17] has as its target Peroxisome proliferator-activated receptor gamma/Nuclear receptor coactivator 2 (Homo sapiens, UniProt P37231). The experiment in a line: TR-FRET dose response biochemical High Throughput Screening assay for agonists of the steroid receptor coactivator 2 (SRC-2) recruitment by the peroxisome proliferator-activated receptor gamma (PPAR gamma): non-selective agonists. [Related pubchem assays: 1297, 1032 ]. It counts as functional.

In experiment [18] the target is Mitogen-activated protein kinase 10 (Homo sapiens, UniProt P53779). In words: Dose response biochemical screening assay for inhibitors of c-Jun N-Terminal Kinase 3 (JNK3). [Related pubchem assays: 746 ].
Mitogen-activated protein kinase 10, sequence (P53779 whole entry): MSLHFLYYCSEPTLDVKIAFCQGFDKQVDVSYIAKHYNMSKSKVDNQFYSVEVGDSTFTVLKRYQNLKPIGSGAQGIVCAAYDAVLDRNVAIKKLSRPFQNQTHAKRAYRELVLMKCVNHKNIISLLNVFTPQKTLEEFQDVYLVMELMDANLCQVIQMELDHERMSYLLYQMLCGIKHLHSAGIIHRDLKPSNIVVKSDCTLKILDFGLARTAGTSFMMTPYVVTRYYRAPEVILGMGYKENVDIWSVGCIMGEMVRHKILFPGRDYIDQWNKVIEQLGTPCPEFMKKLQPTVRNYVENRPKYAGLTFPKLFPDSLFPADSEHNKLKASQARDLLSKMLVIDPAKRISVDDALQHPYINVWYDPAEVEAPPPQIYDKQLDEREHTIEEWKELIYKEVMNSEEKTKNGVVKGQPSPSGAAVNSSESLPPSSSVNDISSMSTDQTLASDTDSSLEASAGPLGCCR
Experiment [19] concerns the target T5, Small ubiquitin-related modifier 1 (Homo sapiens, UniProt P63165). The experiment in a line: SUMO1 protein interaction blockers, potency – biochemical, fluorescence polarization, uHTS hits, dose response (AID 624382). It is filed as functional. Particulars: read-out: IC50_Mean.
Experiment [20] concerns the target T5, Small ubiquitin-related modifier 1. The experiment in a line: SUMO1 protein-protein binding blockers, potency – biochemical, FRET, dose response (AID 624383). It counts as functional. Particulars: read-out: IC50_Mean.
Experiment [21] can be described thus: loss of viability in HepG2 cells – cell-based, CellTiter-Glo, cherry-picked, cytotoxicity control for Shn3 inhibitor project, dose response (AID 624134). It counts as functional.
Experiment [22] in a line: non-specific 3'UTR reporter inhibition in Clone20-Shn3RL – cell-based, Renilla luciferase, cherry-picked, counter-screen for Shn3 inhibitor project, dose response (AID 624133). It is filed as functional.
For experiment [23], the target named is Protein Wnt-3a (Mus musculus, UniProt P27467). The experiment in a line: antagonism of Wnt3a pathway luciferase reporter – Wnt-LIGHT cells, luminescence, selectivity assay for Gli-SUFU antagonist project, dose response (AID 651570).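 Further: Wnt-LIGHT reporter cells stimulated with conditioned medium from Wnt3a-producing cells.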 It counts as functional. Particulars: read-out: IC50_Mean.
Protein Wnt-3a, sequence (P27467 whole entry): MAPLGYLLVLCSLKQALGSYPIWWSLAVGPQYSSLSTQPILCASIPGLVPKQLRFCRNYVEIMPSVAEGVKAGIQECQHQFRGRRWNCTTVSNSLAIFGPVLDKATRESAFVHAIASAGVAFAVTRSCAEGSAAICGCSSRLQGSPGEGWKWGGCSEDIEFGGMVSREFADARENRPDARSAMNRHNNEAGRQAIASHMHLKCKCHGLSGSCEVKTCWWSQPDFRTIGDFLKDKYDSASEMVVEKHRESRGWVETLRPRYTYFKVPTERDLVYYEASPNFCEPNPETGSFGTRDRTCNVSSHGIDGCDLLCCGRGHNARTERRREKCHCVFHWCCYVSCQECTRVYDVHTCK
Experiment [24] has as its target COUP transcription factor 2 (Homo sapiens, UniProt P24468). The experiment in a line: Luminescence-based cell-based high throughput dose response assay to identify inhibitors of COUP-TFII (NR2F2). It counts as functional.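 Further: HEK293 cells transiently cotransfected with COUP-TFII expression vector and reporter; luciferase reporter luminescence driven by COUP-TFII from the pX2-168 reporter plasmid.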
Experiment [25] deals with RNA-editing ligase 1, mitochondrial (Trypanosoma brucei brucei, UniProt P86926). In words: inhibition of trypanosome RNA editing ligase – biochemical, fluorescence, Trypanosoma brucei, dose response (AID 1117295). It counts as functional.
RNA-editing ligase 1, mitochondrial, sequence (P86926 whole entry): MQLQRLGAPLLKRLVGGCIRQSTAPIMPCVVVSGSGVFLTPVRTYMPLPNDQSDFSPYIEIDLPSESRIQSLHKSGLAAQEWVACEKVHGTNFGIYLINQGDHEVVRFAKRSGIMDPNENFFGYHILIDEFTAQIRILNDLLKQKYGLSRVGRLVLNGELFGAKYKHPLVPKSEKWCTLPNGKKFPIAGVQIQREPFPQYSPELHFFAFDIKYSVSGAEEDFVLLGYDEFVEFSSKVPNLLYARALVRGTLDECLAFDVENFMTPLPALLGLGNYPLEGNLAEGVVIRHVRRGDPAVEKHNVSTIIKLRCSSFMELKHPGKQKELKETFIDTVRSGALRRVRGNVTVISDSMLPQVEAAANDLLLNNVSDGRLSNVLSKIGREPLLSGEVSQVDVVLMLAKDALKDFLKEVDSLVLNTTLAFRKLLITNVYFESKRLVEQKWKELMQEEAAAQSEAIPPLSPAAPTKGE

Each structure is given as a SMILES string. Where “and” joins values, the source holds several entries; their conditions need not be identical. Equal entries are not always repeated. Calls of active or inactive are those of the source. A value given as a limit tells only on which side of the number the result lay.

T5 sequence (P63165 whole entry): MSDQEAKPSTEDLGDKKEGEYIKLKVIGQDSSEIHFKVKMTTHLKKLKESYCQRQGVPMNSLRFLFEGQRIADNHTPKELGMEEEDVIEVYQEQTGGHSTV
COUP transcription factor 2, sequence (P24468 whole entry): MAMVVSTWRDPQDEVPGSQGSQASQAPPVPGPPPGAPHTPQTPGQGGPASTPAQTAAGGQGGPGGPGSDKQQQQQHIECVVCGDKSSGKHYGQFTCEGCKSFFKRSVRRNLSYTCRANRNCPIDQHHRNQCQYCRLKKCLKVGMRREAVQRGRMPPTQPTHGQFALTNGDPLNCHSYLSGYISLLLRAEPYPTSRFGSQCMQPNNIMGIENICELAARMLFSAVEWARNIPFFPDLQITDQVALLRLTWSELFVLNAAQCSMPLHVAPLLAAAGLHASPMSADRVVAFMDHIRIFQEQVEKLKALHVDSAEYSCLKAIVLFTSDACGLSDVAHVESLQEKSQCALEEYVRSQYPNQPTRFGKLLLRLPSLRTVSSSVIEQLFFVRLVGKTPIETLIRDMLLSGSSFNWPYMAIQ

With `O=C(Nc1cnn(C23CC4CC(CC(C4)C2)C3)c1)c1cnn2c(C(F)(F)F)cc(-c3ccco3)nc12`, the IC50 in [1] was 11.2 µM (active); in [2] it was > 100 µM (not active); in experiment [3], 3.64 µM (active); in experiment [4], 1.76 µM (active) and 12.3 µM (active); in [5], > 50 µM (not active); in [6] it was 1.69 µM (active). Further, the IC50 in [7] was < 0.023 µM (not active).
As to `O=C1/C(=C/c2ccco2)SC(=S)N1CCC(=O)N1CCCCC1CCO` (stereo not drawn), in [8], the CC50 was 13.4 µM (active).
Take `COCCn1c(C)cc(C(=O)Cn2nc(C(=O)O)c3ccccc3c2=O)c1C`: the IC50 in experiment [9] is 3.73 µM (active).
In the case of `Cc1cccc(-c2noc(CCCC(=O)N3CCOCC3)n2)c1`, the CC50 in experiment [10] was > 99 µM (not active).
Turning to `CCOC(=O)c1c(NC(=O)CSc2nnc(CNc3ccc(F)cc3)o2)sc(C)c1C`, in experiment [11], the IC50 was 29.1 µM (active).
Same read-out and setting: for `CC(=O)C1=C(C)NC(SCC(=O)c2ccc(Cl)c(Cl)c2)=C(C#N)C1c1ccco1` (stereo not drawn) the value was > 50 µM (not active).
For `O=C(CSc1nnc(-c2ccco2)o1)c1ccccc1Cl`, the IC50 in [12] was > 100 µM (active).
In the case of `Cc1ccc(S(=O)(=O)N(CC(=O)N2CCCCC2)c2cccc(C)c2)cc1`, the values for the EC50 in experiment [13] and in [14] were 1.24 µM (active) and > 29.9 µM (not active), respectively.
Consider `CCOC(=O)CC(=O)CSc1ncnc2c1oc1ccccc12`, for which the values for the EC50 in [15], in experiment [16] and in experiment [17] were > 79.4 µM (inactive), > 79.4 µM (not active) and > 26.5 µM (not active), respectively. In [18], the IC50 was > 31 µM (not active).
Turning to `CC1=CC(C)(C)N(C(=O)CSc2nnc(-c3ccccc3)o2)c2ccc(C)cc21`, the EC50 in [13] was 4.18 µM (active); in experiment [14] it was > 29.9 µM (not active).
Turning to `O=C(CSc1ncccc1-c1nc2ccccc2[nH]1)N1CCN(c2ccccc2F)CC1`, the IC50 in experiment [18] is 55.9 µM (not active).
In the case of `O=C(O)c1cccc(NC(=S)NC(NC(=O)c2cccc([N+](=O)[O-])c2)C(Cl)(Cl)Cl)c1` (stereo not drawn), the IC50 in experiment [9] is 9.85 µM (active); in experiment [19], > 66.6 µM (inactive); in [20] it was 10.8 µM (active).
For the molecule `COCCn1cnc2cc(C)c(C)cc21`, the IC50 in experiment [1] and in experiment [4] was > 100 µM (not active) in each case.
As to `CC[C@@H](O)C[C@H]1CCC[C@@]2(C[C@@H]3OC(=O)/C=C/[C@@](C)(O)[C@@H](O)[C@H](C)[C@@H](O)[C@H](OC4CCC(N(C)C)C(C)O4)[C@@H](O)[C@](C)(O)CCCCC/C=C/[C@@H]4CC(C)(C)O[C@@]4(O)C[C@H](O2)[C@H]3C)O1` (stereo partly drawn), the figures for the AC50 in experiment [21] and in experiment [22] were 20.1 µM (active) and < 0.26 µM (active), respectively. In addition, the IC50 in [23] is 0.0061 µM (active); in [24] it was > 0.013 µM (active).
On to `COC(=O)C1=C(C)N(Cc2ccccc2C(F)(F)F)C(NCC2CC2)=NC1c1ccc(F)cc1` (stereo not drawn), for which the IC50 in experiment [25] is > 96.6 µM (inactive).
For the molecule `COC(=O)C1=C(C)N(Cc2ccccc2C(F)(F)F)C(NCc2ccc3c(c2)OCO3)=NC1c1ccc(C(F)(F)F)cc1` (stereo not drawn), the IC50 in experiment [25] is > 96.6 µM (inactive).
